Reference: US20230114627A1, “COMPOSITION COMPRISING A METAL ASCORBO-CAMPHORATE COMPOUND AND METHOD FOR PREVENTION AND/OR TREATMENT OF PAPILLOMAVIRUS INFECTIONS” (MGB PHARMA Inc., priority 2020, published 2023)
pIC50: −log10 of the molar value. Where two headings read alike, the source gives them in different places.

Columns and labels:
[1] = tested on: CaCo-2 (intestinal cells); test: XTT cell viability (KIT Tox-2) on CaCo-2; type: cell-based; settings: CaCo-2, 24 hours, 1 μM to 500 μM tested
Method: (§1) In this example, the cell viability as a measure of non-toxicity was assessed using KIT Tox-2 XTT Sigma Aldrich, where cell viability was measured in terms of the ability of cells to degrade a colorless compound into a colored compound (mitochondrial enzymes) using color intensity as being proportional to the cell viability. Three cell lines as models were used including HEC-1A (line of endocervical origin), SiHa (vaginal cells), and CaCo-2 (intestinal cells). […] KIT Tox-2 XTT Sigma Aldrich.

[2] = tested on: VLP-16 pseudovirions of the HPV-16 virus; settings: for inhibitory concentration 50 (IC50) / pIC50: estimated; for pIC50: read-out: inhibitory concentration 50 (IC50)
Method: This experiment provides the data and analysis of an in vitro “AC” experimental treatment against the HPV-16 papillomavirus which was carried out by neutralizing the entry of viral pseudo particles (VLP-16) of the HPV-16 virus which was inoculated into Cos-7 cells, pretreated or treated contemporaneously to the inoculation of the VLP-16 with solutions of increasing concentrations of the said ascorbo-camphorate compound (AC).
In the case of the present tests in this example, pseudovirions were produced at the Université François Rabelais de Tours (France), under the direction of Professor A. Touzet. In brief, the VLP-16 virus pseudo particles or pseudovirions or VLPs were produced by transfection of purified plasmids containing the L1 and L2 structural proteins of the HPV-16 capsomers, and carrying a gene encoding the luciferase marker gene, into cell culture of the 293-cell line. VLP-16s were collected by nuclear lysis, with purification by […] gradient ultracentrifugation.
The positive control for the neutralization assay as disclosed herein used purified VLP-16 inoculum pre-incubated with purified antibodies against HPV (incubation for 1 hour of said VLP nuclear lysate in a solution of anti-HPV antibodies in DMED culture medium). These anti-HPV antibodies served as a positive control in the plaque assay for neutralization of Cos-7 cell infection by VLP-16.
Cells of the Cos-7 cell line were cultured in 96-well microplates, 5% CO2 and 98% H2O, at 37° C. Inoculation of Cos-7 cells was performed as follows: the inoculum mixture was added to the wells containing the confluent Cos-7 sheets, incubated for 72 hours at 37° C., 5% CO2 and 98% H2O, and the supernatant is washed and discarded from the mixture.
Cos-7 cells that may have internalized the luciferase-expressing VLPs were then recovered. The Cos-7 cells were then lysed; then the substrate (luciferin) of the reporter gene (luciferase) was added with dark incubation, for reading using a luminometer.
For each series, the experiments were repeated three times.
To assess pseudovirions infectivity, linear reporter gene expression and to perform titration of pseudovirions solutions, Cos-7 cells were grown (10^4 cells/well) in supplemented DMEM in 96-well plates (Thermo Fisher Scientific) in 5% CO2 at +37° C. until cell confluence was 40-50%. Cells were transduced by replacing the culture medium with fresh unsupplemented DMEM containing serial dilutions of the previously produced PsVs stock solutions and incubated at +37° C. One well containing 1 μg of the pGL4.10[luc2] vector, encoding the luciferase reporter gene, was made as a positive control and another was the cell control for background luminescence (without PsVs or reporter plasmid). After a 3 hours incubation period, 100 μL of growth medium was added to each well and the transduced Cos-7 cells were incubated for 48 h at +37° C. in 5% CO2. Then, the growth medium was removed and the transduced Cos-7 cells were washed with DPBS and incubated in the dark for 15 min in 100 μL of Pierce™ Firefly Luciferase One-Step Glow Assay (Thermo Fisher Scientific). The resulting cell lysates were harvested and transferred to white, 96-well microplates and luciferase enzyme activity was measured using the Luminoskan Ascent brand luminometer (from Thermo Fisher Scientific) after adding 50 μL of luciferin substrate to each well.
Serial dilutions of the stock solution of compound “AC” covering an appropriate concentration range were subjected to an HPV inhibition assay based on VLP-16 pseudovirions.

[3] = tested on: SiHa (vaginal cells); test: XTT cell viability (KIT Tox-2) on SiHa; type: cell-based; settings: 24 hours, 1 μM to 500 μM tested
Method: as §1

[4] = pseudovirions added simultaneously

With zinc tetra-ascorbo-camphorate [C14] the “concentrations without toxicity to epithelial cells” value [1] was “less than or equal to 125 μM”, the “inhibition of VLP-16 internalization” value ([2]; contemporaneous addition, 1/10 dilution (515.5 μM)) was “Total inhibition” and the “inhibition of VLP-16 penetration into Cos-7 cells” value ([2]; contemporaneous addition, dilution 1:10^3 (51.5 μM)) was 33%. For the same substance, the “inhibitory concentration 50 (IC50)” value ([2]; pre-treatment of Cos-7 cells) was 2.8 µg/mL, the “inhibition of penetration of VLP-16 into Cos-7 cells” value ([2]; pretreatment, compared to untreated infected controls) was 30-40% and the “inhibition of VLP-16 internalization” value ([2]; pretreatment, dilution 1/10^2 (515.5 μM)) was “total inhibition”. The “inhibitory concentration 50 (IC50)” value [2, 4] was 8.1 µg/mL, the pIC50 ([2]; pre-treatment of Cos-7 cells) was 5.54 and the pIC50 [2, 4] was 5.08. The “concentrations without toxicity to epithelial cells” value [3] was “less than or equal to 125 μM”.
